Here are results for six substances from US20140329706A1, “AFFINITY TAGS, AND RELATED AFFINITY LIGANDS, ENGINEERED PROTEINS, MODIFIED SUPPORTS, COMPOSITIONS, METHODS AND SYSTEMS” (CALIFORNIA INSTITUTE OF TECHNOLOGY, priority 2013, published 2014).

Data set [1] addresses T1, PSD-95 PDZ2 coupled to a solid support (Mus musculus, UniProt Q62108).
T1 construct: pJExpress414 plasmids containing a gene coding for the PDZ2 domain of PSD-95; made in house; host or cells: E. coli BL21(DE3)
Nature of the data set: Binding of NR2B tail truncation fusion proteins to PSD-95 PDZ2 affinity resin. The settings on record: elution with SIESDV peptide, SDS-PAGE. The procedure: For the experiment, fusion proteins containing THX fused to varying numbers of residues from the NR2B Tail ([…]) were expressed in BL21(DE3) E. coli cells. Single colonies of BL21(DE3) cells harboring pJExpress414 plasmids containing genes of interest were grown overnight at 37° C. in 5 ml of lysogeny broth (LB) (Cat. No. L9110, Teknova, Hollister, Calif.) supplemented with 100 ug/ml carbenicillin. Overnight cultures were diluted 1:500 into Overnight Express Instant Terrific Broth (TB) Media (Cat. No. 71491, EMD Millipore, Billerica, Mass.), grown for 16 h at 37° C., pelleted by centrifugation, and flash frozen in liquid nitrogen. Bacterial cell pellets (0.4-2.5 grams) containing fusions of THX fused to varying numbers of residues from the NR2B Tail ([…]) were resuspended in 5 ml/g cell paste of BugBuster Lysis Buffer [1× BugBuster (Cat. No. 70921, EMD Millipore, Billerica Mass.), 50 mM HEPES, 150 mM NaCl, 5 mM TCEP, 0.5 mM EDTA, 10 mM MgCl2, 2 mM PMSF, Complete Protease Inhibitor supplemented with 25 U/ml Benzonase and 10 U/ml ReadyLyse]. Resuspended cells were incubated on a shaking platform at low speed for 20 minutes at room temperature before the lysate was clarified by centrifugation at 16,000×g for 30 min at 4° C. […] Eluted protein was analyzed on 4-12% bis-tris SDS-PAGE gels and proteins were detected by Gel Code Blue staining.
For the experiment, fusion proteins containing MBP fused to varying numbers of residues from the NR2B Tail ([…]) were expressed in BL21(DE3) E. coli cells. […] Bacterial cell pellets (0.4-2.5 grams) containing fusions of MBP fused to varying numbers of residues from the NR2B Tail ([…]) were resuspended in 5 ml/g cell paste of BugBuster Lysis Buffer [1× BugBuster (Cat. No. 70921, EMD Millipore, Billerica Mass.), 50 mM HEPES, 150 mM NaCl, 5 mM TCEP, 0.5 mM EDTA, 10 mM MgCl2, 2 mM PMSF, Complete Protease Inhibitor supplemented with 25 U/ml Benzonase and 10 U/ml ReadyLyse]. […]

The test system of data set [2] is NR2B C-terminal PDZ domain binding peptide, 1× nNOS PDZ-β-hairpin domains or 2× nNOS PDZ-β-hairpin domains. Nature of the data set: Binding of control MBP or GST to peptide and nNOS PDZ affinity resins. The settings on record: expressed alone without a PDZ domain. The text has this:
In order to test the hypothesis, PSD-95 PDZ2 domains (e.g. Type C PDZ affinity tags) were fused N- or C-terminally to MBP, or internally between an MBP and GST proteins and purified using affinity chromatography resins comprised of NR2B C-terminal PDZ domain binding peptide (H3N+-[…]-COO—), 1× nNOS PDZ-β-hairpin domains or 2× nNOS PDZ-β-hairpin domains. […] Tags performed equally when fused internally or C-terminally, however N-terminal tag fusions were purified in slightly lower yield.
For the experiment, MBP, GST and PSD-95 PDZ2 domains protein or fusion proteins consisting of MBP and/or GST fused in frame with N-terminal, internal or C-terminal PSD-95 PDZ2 domains (e.g. Type C PDZ affinity tags) were expressed in BL21(DE3) E. coli cells. […] Bacterial cell pellets (0.4-2.5 grams) containing the proteins of interest were resuspended in 5 ml/g cell paste of BugBuster Lysis Buffer [1× BugBuster (Cat. No. 70921, EMD Millipore, Billerica Mass.), 50 mM HEPES, 150 mM NaCl, 5 mM TCEP, 0.5 mM EDTA, 10 mM MgCl2, 2 mM PMSF, Complete Protease Inhibitor supplemented with 25 U/ml Benzonase and 10 U/ml ReadyLyse]. […] Eluted protein was analyzed on 4-12% bis-tris SDS-PAGE gels and proteins were detected by Gel Code Blue staining.

For data set [3] the following is noted: refs (54-58); read-out: approximate KD; cited from earlier work.
The conditions of data set [4]: untagged LacZ, Wallenfels & Malhotra, cited from earlier work.
A further data set concerns the target PDZ2 domain of PSD-95 (Rattus norvegicus, UniProt P31016). The settings on record: cited from earlier work.
In another data set the target is PDZ1 domain of PSD-95 (Rattus norvegicus, UniProt P31016). The settings on record: cited from earlier work.

By Kd is commonly meant the free concentration of one partner at which half of the binding sites on the other are occupied at equilibrium, for simple one-to-one binding. For orientation: Km means the substrate concentration at which the rate is half of its maximum.

Where two headings read alike, the source gives them in different places. Where no end group is shown, it is not given here. MBP = maltose binding protein (fusion tag)

T1 sequence (Q62108 160-246 limits assumed): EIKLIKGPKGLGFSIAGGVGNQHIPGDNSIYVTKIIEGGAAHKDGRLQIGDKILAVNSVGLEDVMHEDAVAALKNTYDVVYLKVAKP

For “GST-EKLSSIESD: GST fused to NR2B tail sequence lacking the C-terminal valine ({GST}-EKLSSIESD)”, the “binding to and elution from PSD-95 PDZ2 matrix” value (“binding to and elution” for short) in data set [1] is “abolished binding to the column”.

In the case of “GST: glutathione-S-transferase, known affinity tag and control fusion partner”, the “binding to affinity resins” value in data set [2] is “did not bind to any of the three affinity resins”. In addition, the dissociation constant (Kd) in data set [3] was 40000 to 170000 nM.

As for IESDV, in data set [1], the “binding to and elution” value was “required for effective binding to and elution from the PDZ2 PSD-95 matrix”.

“LacZ: untagged β-Galactosidase, literature values”: in data set [4] (ONPG), the Km was 161 µM. Also, the “VMAX (umol ONPG/mg protein*min)” value in data set [4] is given as 178* umol ONPG/mg protein*min.

Turning to “MBP-EKLSSIESD: MBP fused to NR2B tail sequence lacking the C-terminal valine ({MBP}-EKLSSIESD)”, the “binding to and elution” value in data set [1] is recorded as “abolished binding to the column”.

Consider SIESDV, for which the Kd on PDZ2 domain of PSD-95 (ref (49)) was 700 nM; on PDZ2 domain of PSD-95 (ref (134)), 1300 nM; at PDZ1 domain of PSD-95 (ref (49)), 2300 nM; on PDZ1 domain of PSD-95 (ref (134)), 9700 nM.
